Test results taken from publication PMC3813364 (Iranian Journal of Pharmaceutical Research : IJPR, 2013).
Entries after “also recorded” stand apart in the source; their conditions may differ.

Assays:
[1] = tested on: everted sacs of rat small intestine (jejunum); test: LDH release of the everted gut sac; conditions: TPGS 0.1 mg/mL, PEG 0.5% w/v, 90 min
Procedure: The viability and any possible damage of the gut were evaluated by measuring the release of the cytosolic enzyme lactic dehydrogenase (LDH) as an indicator of cell damage ([18]). The LDH activity was determined in the incubation media in the absence or presence of the excipients using LDH-P kit from Kimia pajouhan (Tehran, Iran). The results were calculated as U/L/cm^2 of sac area (1 unit reduces 10^-6 mol pyruvate per min at pH of 7.5). The influence of excipients (using the maximum concentrations) on the viability of gut sac was measured at 30, 60 and 90 min and compared to the control group (without adding any excipient).

[2] = tested on: everted sacs of rat small intestine (jejunum); test: Etoposide mucosal-to-serosal transport across everted gut sac in absence or presence of excipients/P-gp inhibitor; assay type: in vitro ADME; conditions: etoposide 25 μg/mL; verapamil 100 μg/mL, TPGS 0.002-0.1 mg/mL, PEG 400 0.05, 0.1 and 0.5% w/v; compared to control
Procedure: (§1) The everted sac method was used as previously described ([25]). Everted intestinal sacs were prepared by quickly removing the small intestine from starved rats killed under CO2-anesthesia. The jejunum was excised, flushed through several times with saline solution at room temperature and placed immediately into oxygenated buffer solution at 37°C. Then the intestine was gently everted over a steel rod, filled with fresh oxygenated buffer solution and divided into sacs approximately 4.5 cm in length with silk suture. […] At the defined time points sacs were removed and blotted dry. The sacs were cut open and the serosal fluid was drained into small Eppendorf vial to determine the drug concentration. The area of each sac was calculated closely. Each sac was weighed before and after fluid collection to calculate accurately the volume inside the sac.
(§2) The chromatographic data was acquired by Chromgate 3.1 software from Knauer. Analyses were carried out at ambient temperature on a Chromolith Performance RP-18e (100 mm 4.6 mm i.d., Merck) coupled with a Chromolith RP-18e guard cartridge (5.0 mm 4.6 mm i.d., Merck).

[3] = tested on: everted sacs of rat small intestine (jejunum); test: Paracellular (lucifer yellow) and transcellular (imipramine) marker permeability across everted gut sac with or without TPGS; assay type: in vitro ADME
Procedure: as §1, §2

Substance | LDH release in presence of excipient versus control [1] | Effect on absorptive transport/permeability of etoposide (in words) [2] | Permeability of lucifer yellow ([3]; in absence of TPGS) | Permeability of lucifer yellow ([3]; in presence of TPGS 0.1 mg/mL)
PEG 400 | not notably changed | no effect; also recorded: not affected |  | 
Lucifer yellow |  |  | 9.3 ± 0.03 × 10^-6 cm/s | 9.65 ± 0.6 × 10^-6 cm/s
